Active and inactive are the calls of the source.
Assays:
[1] = target: T1, Serine/threonine-protein phosphatase (Candida dubliniensis (strain CD36 / CBS 7987 / NCPF 3949 / NRRLY-17841) (Yeast), UniProt B9W6M3); experiment: calcineurin pathway inhibitors in yeast reporter, dose response, S. cerevisiae, CDRE-lacZ, luminescence, secondary (AID 2388); type: functional, cell-based;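 also: yeast reporter cells carrying a calcineurin-responsive lacZ construct stimulated with calcium chloride; luminescent beta-galactosidase reporter signal in whole cells rather than isolated phosphatase activity; potency for inhibition where a drop in reporter signal means calcineurin blockade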
T1 sequence (B9W6M3 whole entry): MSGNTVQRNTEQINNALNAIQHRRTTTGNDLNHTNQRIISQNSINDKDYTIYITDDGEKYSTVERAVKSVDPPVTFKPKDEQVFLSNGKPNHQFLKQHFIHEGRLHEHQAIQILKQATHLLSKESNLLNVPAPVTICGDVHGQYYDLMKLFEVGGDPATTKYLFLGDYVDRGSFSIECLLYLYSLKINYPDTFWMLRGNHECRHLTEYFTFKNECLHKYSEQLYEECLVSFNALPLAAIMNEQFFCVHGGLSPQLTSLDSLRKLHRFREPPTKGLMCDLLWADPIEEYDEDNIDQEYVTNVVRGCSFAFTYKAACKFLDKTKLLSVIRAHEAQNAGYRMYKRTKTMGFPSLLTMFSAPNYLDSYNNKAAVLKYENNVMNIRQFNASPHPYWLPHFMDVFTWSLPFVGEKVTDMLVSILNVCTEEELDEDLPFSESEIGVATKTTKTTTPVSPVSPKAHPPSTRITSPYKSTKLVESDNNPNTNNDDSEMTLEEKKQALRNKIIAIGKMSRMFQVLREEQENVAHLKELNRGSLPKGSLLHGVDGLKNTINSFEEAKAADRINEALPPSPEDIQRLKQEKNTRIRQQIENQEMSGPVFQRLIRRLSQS

[2] = target: Beta-galactosidase (Escherichia coli, UniProt Q8VNN2); experiment: PubChem AID 485352; type: functional
[3] = target: T2, Type-1 angiotensin II receptor (Homo sapiens, UniProt P30556); experiment: AT1 receptor antagonists, dose response, selectivity assay for APJ receptor antagonist project, cell-based, uHTS hits (AID 463214); type: functional;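 also: antagonist potency against angiotensin II stimulated AT1 response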
T2 sequence (P30556 whole entry): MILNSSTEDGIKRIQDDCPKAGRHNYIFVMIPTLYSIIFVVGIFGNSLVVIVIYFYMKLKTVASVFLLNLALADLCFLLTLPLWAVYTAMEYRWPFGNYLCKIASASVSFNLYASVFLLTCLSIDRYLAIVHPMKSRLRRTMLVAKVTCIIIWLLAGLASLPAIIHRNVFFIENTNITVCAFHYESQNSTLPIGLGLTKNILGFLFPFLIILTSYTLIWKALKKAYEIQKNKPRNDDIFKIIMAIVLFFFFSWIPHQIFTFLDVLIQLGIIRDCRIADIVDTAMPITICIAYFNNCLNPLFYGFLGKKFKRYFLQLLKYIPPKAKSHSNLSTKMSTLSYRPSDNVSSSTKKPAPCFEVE

[4] = target: ATP-dependent molecular chaperone HSP82 (Candida albicans (strain WO-1) (Yeast), UniProt C4YTQ8); experiment: loss of DOC-induced GRE-beta-galactosidase reporter signal, dose response, Hsp90 inhibitor project, S. cerevisiae, luminescence (AID 2400); type: functional, cell-based;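 also: beta-galactosidase luminescence from glucocorticoid response element reporter as proxy for Hsp90 function; inhibitor potency where signal loss means Hsp90 inhibition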
[5] = C. albicans growth with fluconazole, confirmation, fluorescence, retest (AID 2467); type: functional, cell-based
[6] = NIH-3T3 fibroblast cytotoxicity, dose response, cytotoxicity control, cell-based, fluorescence, Alamar Blue, secondary assay (AID 2327); type: functional;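 also: NIH-3T3 mouse fibroblasts cultured with fluconazole at 8 µg/mL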
[7] = target: Tumor necrosis factor (Homo sapiens, UniProt P01375); experiment: TNFa-triggered NF-kB activation inhibitors, SAR follow-up, cell-based, revised (AID 2337); type: functional
[8] = target: T3, Nucleotide-binding oligomerization domain-containing protein 2 (Homo sapiens, UniProt Q9HC29); experiment: NOD2 signaling inhibitors, cell-based, luminescence, uHTS, HEK293 (AID 1566); type: functional
[9] = target: T3, Nucleotide-binding oligomerization domain-containing protein 2; experiment: PubChem AID 2334; type: functional
[10] = target: T4, Nucleotide-binding oligomerization domain-containing protein 1 (Homo sapiens, UniProt Q9Y239); experiment: NOD1 signaling inhibitors, SAR follow-up, revised (AID 2333); type: functional
T4 sequence (Q9Y239 whole entry): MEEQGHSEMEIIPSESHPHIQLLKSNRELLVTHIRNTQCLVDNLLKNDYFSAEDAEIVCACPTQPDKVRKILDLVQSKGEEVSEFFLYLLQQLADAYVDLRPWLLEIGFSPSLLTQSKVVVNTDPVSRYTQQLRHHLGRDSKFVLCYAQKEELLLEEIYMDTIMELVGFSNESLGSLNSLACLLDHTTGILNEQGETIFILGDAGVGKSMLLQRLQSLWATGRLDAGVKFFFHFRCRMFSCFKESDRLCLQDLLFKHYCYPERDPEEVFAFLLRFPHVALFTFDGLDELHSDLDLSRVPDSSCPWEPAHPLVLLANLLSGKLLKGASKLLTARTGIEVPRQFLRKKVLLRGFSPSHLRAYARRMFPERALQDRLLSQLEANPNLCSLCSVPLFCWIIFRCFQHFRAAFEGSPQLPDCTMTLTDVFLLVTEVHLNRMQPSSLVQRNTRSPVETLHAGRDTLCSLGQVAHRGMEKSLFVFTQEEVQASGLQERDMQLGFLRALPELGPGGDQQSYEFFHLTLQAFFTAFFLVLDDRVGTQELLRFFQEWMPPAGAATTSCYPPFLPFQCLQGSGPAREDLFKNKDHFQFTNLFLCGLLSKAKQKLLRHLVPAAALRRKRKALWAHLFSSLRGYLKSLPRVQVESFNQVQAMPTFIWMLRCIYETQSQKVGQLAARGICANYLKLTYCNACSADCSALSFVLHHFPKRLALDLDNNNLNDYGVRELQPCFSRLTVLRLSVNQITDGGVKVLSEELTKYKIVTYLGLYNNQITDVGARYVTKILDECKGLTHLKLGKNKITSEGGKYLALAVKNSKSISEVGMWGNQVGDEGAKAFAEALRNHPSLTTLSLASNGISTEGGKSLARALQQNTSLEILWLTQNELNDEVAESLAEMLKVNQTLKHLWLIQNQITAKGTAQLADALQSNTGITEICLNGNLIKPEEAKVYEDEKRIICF

[11] = tested on: Escherichia coli; experiment: microbe, parasite or virus in culture
[12] = tested on: A-375; experiment: MITF: Counter assay: A375 proliferation Measured in Cell-Based System Using Plate Reader - 2084-03_Inhibitor_Dose_DryPowder_Activity. [Related pubchem assays (depositor defined):AID488944]; type: functional; conditions: Homo sapiens
[13] = tested on: A-375; experiment: A375 melanoma cell viability reduction, dose response, counter-screen for MITF modulator project, cherry-pick samples, set 2 (AID 540335); type: functional, cell-based; conditions: Homo sapiens
[14] = tested on: HeLa; experiment: HeLa cell cytotoxicity, dose response, cytotoxicity control for MITF activator project, CellTiter-Glo luminescence, cherry-pick samples (AID 540259); type: functional, cell-based; conditions: Homo sapiens
[15] = target: Glucose-6-phosphate 1-dehydrogenase (Homo sapiens, UniProt P11413); experiment: human G6PD enzyme inhibitors, dose response, selectivity assay for P. falciparum G6PD inhibitor project, biochemical, fluorescence (AID 504792); type: functional
[16] = target: Beta-lactamase (Salmonella choleraesuis (strain SC-B67), UniProt Q5J463)
[17] = tested on: HeLa; experiment: HeLa cell cytotoxicity, dose response, cytotoxicity control, 24 h, cherry-picked samples (AID 504726); type: functional, cell-based; conditions: Homo sapiens;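 also: potency for cytotoxicity as loss of luminescence signal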
[18] = target: Beta-lactamase (Pseudomonas aeruginosa, UniProt Q79MP6);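 also: biochemical dose-response test of metallo-beta-lactamase enzyme inhibition, read out by epi-absorbance; purified recombinant IMP-1 metallo-beta-lactamase with nitrocefin as substrate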
[19] = target: UDP-galactopyranose mutase (Mycobacterium tuberculosis, UniProt P9WIQ1); experiment: Inhibitors of Mycobacterium tuberculosis UDP-galactopyranose mutase (UGM) enzyme Measured in Biochemical System Using Plate Reader - 2105-02_Inhibitor_Dose_CherryPick_Activity. [Related pubchem assays (depositor defined):AID504439]
[20] = target: ORF 73 (Human herpesvirus 8, UniProt O40947); experiment: inhibitors of C-LANA binding to LBS DNA, dose response, biochemical, fluorescence polarization, cherry-picked samples (AID 504725); set-up: species or system Human gammaherpesvirus 8;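 also: fluorescence polarization of a labeled DNA duplex reporting LANA DNA binding; potency is for inhibitors that block LANA binding to the DNA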
[21] = target: T5, Mannose-6-phosphate isomerase (Homo sapiens, UniProt P34949); experiment: human PMI inhibitors, high substrate, primary screen, biochemical, fluorescence intensity, high mannose 6-phosphate (AID 1220)
T5 sequence (P34949 whole entry): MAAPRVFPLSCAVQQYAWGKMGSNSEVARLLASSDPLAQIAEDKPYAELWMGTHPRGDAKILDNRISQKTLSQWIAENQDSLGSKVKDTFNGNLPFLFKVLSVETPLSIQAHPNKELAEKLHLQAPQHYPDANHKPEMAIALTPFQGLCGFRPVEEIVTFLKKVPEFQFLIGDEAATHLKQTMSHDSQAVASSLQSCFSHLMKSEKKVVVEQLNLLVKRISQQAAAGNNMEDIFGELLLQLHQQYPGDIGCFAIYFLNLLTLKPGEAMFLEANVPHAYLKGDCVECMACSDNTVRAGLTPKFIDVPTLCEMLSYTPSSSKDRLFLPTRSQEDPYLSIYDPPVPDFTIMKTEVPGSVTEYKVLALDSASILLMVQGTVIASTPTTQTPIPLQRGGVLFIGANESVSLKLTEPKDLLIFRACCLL

[22] = P. falciparum late gametocyte killing, dose response, luminescence (AID 1117278); type: functional, cell-based;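 also: gametocytes exposed to compound for 24 hours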
[23] = target: T6, Corticotropin-releasing factor receptor 2/Corticotropin-releasing factor-binding protein (Homo sapiens, UniProt P24387+Q13324); experiment: activators of CRF receptor 2 with binding protein – uHTS hits, confirmation (AID 602473); type: functional; conditions: read-out: EC50_Mean
T6 sequence (Q13324 whole entry): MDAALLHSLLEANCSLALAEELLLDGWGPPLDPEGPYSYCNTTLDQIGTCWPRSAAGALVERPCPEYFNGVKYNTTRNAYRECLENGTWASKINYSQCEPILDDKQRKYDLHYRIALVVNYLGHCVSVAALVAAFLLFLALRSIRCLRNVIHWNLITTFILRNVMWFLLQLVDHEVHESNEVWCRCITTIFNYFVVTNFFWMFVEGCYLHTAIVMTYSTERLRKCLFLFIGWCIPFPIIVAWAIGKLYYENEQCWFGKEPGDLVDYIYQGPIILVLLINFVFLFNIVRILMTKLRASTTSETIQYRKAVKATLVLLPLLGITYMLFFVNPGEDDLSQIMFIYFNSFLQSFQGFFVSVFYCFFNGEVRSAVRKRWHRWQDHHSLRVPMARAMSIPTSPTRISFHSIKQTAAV
T6 sequence (P24387 whole entry): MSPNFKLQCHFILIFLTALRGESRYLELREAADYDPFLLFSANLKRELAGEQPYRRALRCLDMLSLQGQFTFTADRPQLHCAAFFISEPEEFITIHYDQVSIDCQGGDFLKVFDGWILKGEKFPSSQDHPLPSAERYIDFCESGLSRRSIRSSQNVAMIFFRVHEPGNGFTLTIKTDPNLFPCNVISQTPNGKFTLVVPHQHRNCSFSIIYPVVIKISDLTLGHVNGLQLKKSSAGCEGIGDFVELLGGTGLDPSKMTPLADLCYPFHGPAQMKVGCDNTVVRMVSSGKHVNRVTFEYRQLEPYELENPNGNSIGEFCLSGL

[24] = Jurkat T cell cytotoxicity, dose response, cytotoxicity control for P. falciparum gametocyte viability project, luminescence (AID 1117277); type: functional, cell-based;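 also: potency reflects loss of cellular ATP meaning fewer viable cells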

Sequence of UDP-galactopyranose mutase (P9WIQ1 whole entry): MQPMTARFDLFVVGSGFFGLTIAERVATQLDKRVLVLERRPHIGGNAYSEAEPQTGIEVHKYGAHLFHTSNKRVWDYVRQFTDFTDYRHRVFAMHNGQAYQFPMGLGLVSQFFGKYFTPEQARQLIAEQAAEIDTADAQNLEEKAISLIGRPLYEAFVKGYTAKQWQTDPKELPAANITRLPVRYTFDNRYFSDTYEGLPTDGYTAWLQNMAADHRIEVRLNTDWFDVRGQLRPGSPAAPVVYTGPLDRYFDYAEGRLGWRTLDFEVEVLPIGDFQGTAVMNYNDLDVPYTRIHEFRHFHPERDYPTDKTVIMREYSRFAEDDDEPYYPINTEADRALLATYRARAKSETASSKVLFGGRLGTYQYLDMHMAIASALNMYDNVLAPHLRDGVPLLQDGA
T3 sequence (Q9HC29 whole entry, the tested form may be a part): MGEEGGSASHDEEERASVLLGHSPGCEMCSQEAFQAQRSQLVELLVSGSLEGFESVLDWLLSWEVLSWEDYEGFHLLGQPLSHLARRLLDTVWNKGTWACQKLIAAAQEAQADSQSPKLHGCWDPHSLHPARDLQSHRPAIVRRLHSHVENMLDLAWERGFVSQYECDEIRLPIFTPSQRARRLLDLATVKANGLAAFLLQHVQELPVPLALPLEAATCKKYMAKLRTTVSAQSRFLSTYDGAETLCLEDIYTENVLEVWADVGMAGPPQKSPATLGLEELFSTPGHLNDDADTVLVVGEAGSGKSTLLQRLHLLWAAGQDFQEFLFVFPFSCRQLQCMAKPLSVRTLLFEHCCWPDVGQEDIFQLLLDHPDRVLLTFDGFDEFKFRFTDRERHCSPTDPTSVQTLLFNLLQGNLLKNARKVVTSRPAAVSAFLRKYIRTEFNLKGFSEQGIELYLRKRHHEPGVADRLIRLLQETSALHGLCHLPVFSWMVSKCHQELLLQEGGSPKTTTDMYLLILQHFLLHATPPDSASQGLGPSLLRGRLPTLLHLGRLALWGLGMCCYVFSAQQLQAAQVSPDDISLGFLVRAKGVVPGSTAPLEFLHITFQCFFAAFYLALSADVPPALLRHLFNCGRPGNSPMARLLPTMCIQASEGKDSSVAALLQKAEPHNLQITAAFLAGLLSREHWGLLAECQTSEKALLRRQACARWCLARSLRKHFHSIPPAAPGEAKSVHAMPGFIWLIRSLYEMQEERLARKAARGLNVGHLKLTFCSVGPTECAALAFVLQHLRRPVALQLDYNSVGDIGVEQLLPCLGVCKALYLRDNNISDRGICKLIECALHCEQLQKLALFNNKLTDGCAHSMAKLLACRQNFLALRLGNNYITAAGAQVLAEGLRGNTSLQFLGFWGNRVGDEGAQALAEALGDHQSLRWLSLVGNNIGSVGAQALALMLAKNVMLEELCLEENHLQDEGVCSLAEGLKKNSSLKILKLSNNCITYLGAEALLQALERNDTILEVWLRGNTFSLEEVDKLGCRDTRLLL
Sequence of Beta-galactosidase (Q8VNN2 whole entry): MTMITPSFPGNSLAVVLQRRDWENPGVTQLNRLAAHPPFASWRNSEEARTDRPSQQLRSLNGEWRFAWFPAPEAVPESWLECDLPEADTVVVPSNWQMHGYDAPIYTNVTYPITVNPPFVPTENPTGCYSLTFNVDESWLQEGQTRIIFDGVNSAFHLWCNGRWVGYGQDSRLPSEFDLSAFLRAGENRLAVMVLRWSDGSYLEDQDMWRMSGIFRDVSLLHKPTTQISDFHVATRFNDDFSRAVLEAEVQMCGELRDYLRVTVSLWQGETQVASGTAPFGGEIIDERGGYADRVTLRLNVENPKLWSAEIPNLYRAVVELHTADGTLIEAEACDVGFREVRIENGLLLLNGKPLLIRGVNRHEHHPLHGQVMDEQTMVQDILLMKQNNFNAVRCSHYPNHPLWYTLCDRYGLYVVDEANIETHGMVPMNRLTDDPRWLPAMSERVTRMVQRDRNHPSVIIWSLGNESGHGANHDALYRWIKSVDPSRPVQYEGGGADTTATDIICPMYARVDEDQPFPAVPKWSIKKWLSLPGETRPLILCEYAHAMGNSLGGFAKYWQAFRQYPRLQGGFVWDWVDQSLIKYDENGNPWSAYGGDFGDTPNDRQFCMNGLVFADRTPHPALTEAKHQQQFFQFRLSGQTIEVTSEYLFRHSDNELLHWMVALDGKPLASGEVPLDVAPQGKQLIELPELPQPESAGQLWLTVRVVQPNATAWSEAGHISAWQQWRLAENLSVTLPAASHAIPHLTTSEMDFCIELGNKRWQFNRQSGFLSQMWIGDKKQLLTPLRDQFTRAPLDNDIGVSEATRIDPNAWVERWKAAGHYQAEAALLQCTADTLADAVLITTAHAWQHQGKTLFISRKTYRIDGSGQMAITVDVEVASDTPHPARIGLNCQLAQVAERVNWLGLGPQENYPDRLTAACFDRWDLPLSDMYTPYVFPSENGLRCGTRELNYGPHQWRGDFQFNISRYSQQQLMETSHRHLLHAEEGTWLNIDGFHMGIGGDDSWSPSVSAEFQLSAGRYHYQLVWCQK
Sequence of Glucose-6-phosphate 1-dehydrogenase (P11413 whole entry): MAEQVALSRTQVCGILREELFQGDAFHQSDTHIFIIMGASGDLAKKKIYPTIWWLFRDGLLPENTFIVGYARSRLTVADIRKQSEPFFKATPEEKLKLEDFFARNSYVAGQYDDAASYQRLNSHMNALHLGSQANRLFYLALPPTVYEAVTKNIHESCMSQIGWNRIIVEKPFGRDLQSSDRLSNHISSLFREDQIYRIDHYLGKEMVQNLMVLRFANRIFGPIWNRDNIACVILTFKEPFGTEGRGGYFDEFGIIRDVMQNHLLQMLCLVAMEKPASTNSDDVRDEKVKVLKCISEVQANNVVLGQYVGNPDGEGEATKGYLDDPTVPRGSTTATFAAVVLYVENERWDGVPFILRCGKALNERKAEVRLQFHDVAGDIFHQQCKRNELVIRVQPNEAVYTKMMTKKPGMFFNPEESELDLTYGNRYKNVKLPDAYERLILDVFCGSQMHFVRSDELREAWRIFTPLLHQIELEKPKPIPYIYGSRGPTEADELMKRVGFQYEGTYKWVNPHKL
Sequence of Beta-lactamase (Pseudomonas aeruginosa, UniProt Q79MP6) (Q79MP6 whole entry): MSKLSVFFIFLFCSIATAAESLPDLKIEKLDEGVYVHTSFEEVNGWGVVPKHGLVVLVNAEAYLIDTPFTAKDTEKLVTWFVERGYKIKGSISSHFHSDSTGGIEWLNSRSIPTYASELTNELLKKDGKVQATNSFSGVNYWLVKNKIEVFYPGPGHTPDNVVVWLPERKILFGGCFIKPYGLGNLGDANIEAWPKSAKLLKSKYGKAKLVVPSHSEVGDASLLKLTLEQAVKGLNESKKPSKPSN
Sequence of ATP-dependent molecular chaperone HSP82 (C4YTQ8 whole entry): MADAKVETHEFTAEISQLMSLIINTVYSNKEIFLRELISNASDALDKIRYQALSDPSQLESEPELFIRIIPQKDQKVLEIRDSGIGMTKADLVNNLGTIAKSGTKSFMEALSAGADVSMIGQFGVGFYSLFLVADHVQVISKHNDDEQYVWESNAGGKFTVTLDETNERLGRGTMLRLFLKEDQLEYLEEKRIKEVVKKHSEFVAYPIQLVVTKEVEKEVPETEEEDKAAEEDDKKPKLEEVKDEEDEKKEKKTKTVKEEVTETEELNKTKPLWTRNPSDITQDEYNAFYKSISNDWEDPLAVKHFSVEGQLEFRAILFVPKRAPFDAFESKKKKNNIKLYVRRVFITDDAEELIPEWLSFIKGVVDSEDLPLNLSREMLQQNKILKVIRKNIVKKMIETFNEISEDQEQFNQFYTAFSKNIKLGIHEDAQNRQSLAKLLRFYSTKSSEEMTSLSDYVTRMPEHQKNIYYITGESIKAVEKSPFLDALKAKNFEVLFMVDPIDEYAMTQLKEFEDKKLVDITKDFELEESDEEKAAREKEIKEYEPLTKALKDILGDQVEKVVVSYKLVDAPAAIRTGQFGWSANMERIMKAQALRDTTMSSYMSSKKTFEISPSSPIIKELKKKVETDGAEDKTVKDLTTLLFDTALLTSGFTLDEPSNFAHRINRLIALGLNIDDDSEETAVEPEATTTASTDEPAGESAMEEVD
Sequence of Tumor necrosis factor (P01375 whole entry, the tested form may be a part): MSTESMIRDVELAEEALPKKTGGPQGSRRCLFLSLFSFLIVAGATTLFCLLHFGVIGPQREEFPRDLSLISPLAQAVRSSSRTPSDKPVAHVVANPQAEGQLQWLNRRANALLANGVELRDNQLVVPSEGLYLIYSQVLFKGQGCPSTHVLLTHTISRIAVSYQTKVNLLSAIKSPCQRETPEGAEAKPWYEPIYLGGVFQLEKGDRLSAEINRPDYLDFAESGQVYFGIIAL
Sequence of Beta-lactamase (Salmonella choleraesuis (strain SC-B67), UniProt Q5J463) (Q5J463 whole entry): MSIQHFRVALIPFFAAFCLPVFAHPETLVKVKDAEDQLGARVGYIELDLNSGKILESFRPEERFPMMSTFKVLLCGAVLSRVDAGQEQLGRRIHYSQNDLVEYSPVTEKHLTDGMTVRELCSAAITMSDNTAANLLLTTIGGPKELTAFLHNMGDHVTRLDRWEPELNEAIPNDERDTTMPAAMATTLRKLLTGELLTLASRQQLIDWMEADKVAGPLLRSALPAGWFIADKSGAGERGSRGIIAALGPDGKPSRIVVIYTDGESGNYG

Compound: CCC(C)c1ccc(O)c(NC(=S)NC(=O)c2cccnc2)c1 (stereo not given)
- EC50 [1]: > 180 µM (inactive)
- EC50 [2]: > 40 µM (inactive)
- IC50 [3]: 14 µM (active)
- EC50 [4]: 48.9 µM (active)
- EC50 [5]: 0.632 µM (active)
- EC50 [6]: > 150 µM (inactive)

Compound: Fc1ccc(NC(=S)Nc2nccs2)cc1
- IC50 [7]: > 20 µM (inactive)
- EC50 [2]: > 40 µM (inactive)
- IC50 [3]: 25.2 µM (not active)
- EC50 [8]: > 20 µM (inactive)
- IC50 [9]: > 20 µM (inactive)
- IC50 [10]: > 20 µM (inactive)

Compound: COc1c2ccoc2nc2c(OC)c(OC[C@@H](O)C(C)(C)O)ccc12
- AC50 [11]: 54.2 µM (active)

Compound: COc1ccccc1N1CCN(/N=C/c2cccc(Cl)c2)CC1
- AC50 [12]: > 35 µM (active)
- AC50 [13]: > 35 µM (active)
- AC50 [14]: 161 µM (active)

Compound: Cc1ccc(-c2nn(C)c(=O)c3ccccc23)cc1CNC(=O)/C=C/c1ccccc1
- IC50 [15]: 49.5 µM (inactive)

Compound: Cc1nn(C)c(C)c1N1C(=O)c2cccc3c(N)ccc(c23)C1=O
- IC50 [16]: 5.25 µM (active)
- AC50 [17]: 264 µM (active)
- IC50 [18]: 9.3 µM (active)
- AC50 [19]: 1.39 µM (active)
- AC50 [20]: 0.81 µM (active)

Compound: C=CCSc1nc2sc3c(c2c(=O)n1CC)CCc1ccccc1-3
- IC50 [15]: > 80 µM (inactive)
- IC50 [21]: 13.5 µM (active)

Compound: Cc1ccc(NC(=O)Nc2ccccc2)nc1
- AC50 [12]: > 35 µM (active)
- AC50 [13]: > 35 µM (active)

Compound: O=C(NCc1ccc(OC(F)(F)F)cc1)c1cccc2c1C(=O)c1ccc(N3CCCCC3)cc1S2(=O)=O
- IC50 [22]: > 109 µM (inactive)
- EC50 [23]: 6.58 µM (active)
- AC50 [19]: 7.54 µM (active)
- IC50 [24]: > 83.3 µM (inactive)
